In the oligonucleotide strings, read from the 5' end, every base follows the letter of its sugar. An asterisk marks phosphorothioate; unmarked linkages are phosphodiester. Other units and linkages are bracketed, terminal groups are in braces. A string of capitals states the bases alone. e = 2'-O-(2-methoxyethyl) (MOE); [5mC] = 5-methylcytosine; d = 2'-deoxy (DNA)
system: human apolipoprotein B mRNA; assay: Inhibition of human apolipoprotein B mRNA levels in HepG2 cells, quantitative real-time PCR; format: cell-based; settings: HepG2 cells treated with 150 nM of compound; averages from two experiments; quantitative real-time PCR
Summary of the method: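 HepG2 cells at 80% confluency were transfected with antisense oligonucleotide using 3.75 μg/mL Lipofectin in Opti-MEM for 4-7 h and harvested 16-24 h after treatment. Apolipoprotein B mRNA was measured by real-time RT-PCR and normalized to GAPDH or RiboGreen total RNA. Percent inhibition came from untreated-control standard curves.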

Point of comparison: “281618 (antisense eA*eA*eG*e[5mC]*eA*dG*dA*d[5mC]*dA*dT*d[5mC]*dT*dG*dT*dG*eG*eT*e[5mC]*e[5mC]*e[5mC]) [compound 281618]”, “% INHIB (inhibition of human apolipoprotein B mRNA levels)” value 90%. Against it:
- 281589 (eT*e[5mC]*eA*eG*e[5mC]*dA*dA*dG*dG*d[5mC]*dT*dT*dT*dG*d[5mC]*e[5mC]*e[5mC]*eT*e[5mC]*eA; antisense) [compound 281589] — the same, 90%
- 281590 (e[5mC]*eT*eG*e[5mC]*eT*dT*d[5mC]*d[5mC]*d[5mC]*dT*dT*d[5mC]*dT*dG*dG*eA*eA*eT*eG*eG; antisense) [compound 281590] — lower, 84%
- 281591 (eT*eG*e[5mC]*e[5mC]*eA*d[5mC]*dA*dT*dT*dG*d[5mC]*d[5mC]*d[5mC]*dT*dT*e[5mC]*e[5mC]*eT*e[5mC]*eG; antisense) [compound 281591] — the same, 90%
- 281592 (eG*e[5mC]*eT*eG*eA*dT*d[5mC]*dA*dG*dA*dG*dT*dT*dG*dA*e[5mC]*eA*eA*eG*eG; antisense) [compound 281592] — lower, 56%
- 281593 (eT*eA*e[5mC]*eT*eG*dA*d[5mC]*dA*dG*dG*dA*d[5mC]*dT*dG*dG*e[5mC]*eT*eG*e[5mC]*eT; antisense) [compound 281593] — higher, 93%
- 281594 (eG*eA*eT*eG*eG*d[5mC]*dT*dT*d[5mC]*dT*dG*d[5mC]*d[5mC]*dA*d[5mC]*eA*eT*eG*e[5mC]*eT; antisense) [compound 281594] — lower, 74%
- 281595 (eG*eA*eT*eG*eT*dG*dG*dA*dT*dT*dT*dG*dG*dT*dG*e[5mC]*eT*e[5mC]*eT*e[5mC]; antisense) [compound 281595] — lower, 76%
- 281596 (eT*eG*eA*e[5mC]*eT*dG*d[5mC]*dT*dT*d[5mC]*dA*dT*d[5mC]*dA*d[5mC]*eT*eG*eA*eG*eG; antisense) [compound 281596] — lower, 77%
- 281597 (eG*eG*eT*eA*eG*dG*dT*dG*dA*d[5mC]*d[5mC]*dA*d[5mC]*dA*dT*e[5mC]*eT*eA*eT*e[5mC]; antisense) [compound 281597] — lower, 36%
- 281598 (eT*e[5mC]*eG*e[5mC]*eA*dG*d[5mC]*dT*dG*d[5mC]*dT*dG*dT*dG*d[5mC]*eT*eG*eA*eG*eG; antisense) [compound 281598] — lower, 70%
- 281599 (eT*eT*e[5mC]*e[5mC]*eA*dA*dT*dG*dA*d[5mC]*d[5mC]*d[5mC]*dG*d[5mC]*dA*eG*eA*eA*eT*e[5mC]; antisense) [compound 281599] — lower, 74%
- 281600 (antisense eG*eA*eT*e[5mC]*eA*dT*d[5mC]*dA*dG*dT*dG*dA*dT*dG*dG*e[5mC]*eT*eT*eT*eG) [compound 281600] — lower, 52%
- 281601 (antisense eA*eG*e[5mC]*e[5mC]*eT*dG*dG*dA*dT*dG*dG*d[5mC]*dA*dG*d[5mC]*eT*eT*eT*e[5mC]*eT) [compound 281601] — lower, 83%
- 281602 (antisense eG*eT*e[5mC]*eT*eG*dA*dA*dG*dA*dA*dG*dA*dA*d[5mC]*d[5mC]*eT*e[5mC]*e[5mC]*eT*eG) [compound 281602] — lower, 84%
- 281603 (antisense eT*eA*eT*e[5mC]*eT*dG*d[5mC]*d[5mC]*dT*dG*dT*dG*dA*dA*dG*eG*eA*e[5mC]*eT*e[5mC]) [compound 281603] — lower, 82%
- 281604 (antisense e[5mC]*eT*eG*eA*eG*dT*dT*d[5mC]*dA*dA*dG*dA*dT*dA*dT*eT*eG*eG*e[5mC]*eA) [compound 281604] — lower, 78%
- 281605 (antisense e[5mC]*eT*eT*e[5mC]*e[5mC]*dA*dA*dG*d[5mC]*d[5mC]*dA*dA*dT*d[5mC]*dT*e[5mC]*eG*eA*eT*eG) [compound 281605] — lower, 82%
- 281606 (antisense eT*eG*e[5mC]*eA*eA*d[5mC]*dT*dG*dT*dA*dA*dT*d[5mC]*d[5mC]*dA*eG*e[5mC]*eT*e[5mC]*e[5mC]) [compound 281606] — lower, 86%
- 281607 (antisense e[5mC]*e[5mC]*eA*eG*eT*dT*d[5mC]*dA*dG*d[5mC]*d[5mC]*dT*dG*d[5mC]*dA*eT*eG*eT*eT*eG) [compound 281607] — lower, 84%
- 281608 (antisense eG*eT*eA*eG*eA*dG*dA*d[5mC]*d[5mC]*dA*dA*dA*dT*dG*dT*eA*eA*eT*eG*eT) [compound 281608] — lower, 62%
- 281609 (antisense e[5mC]*eG*eT*eT*eG*dG*dA*dG*dT*dA*dA*dG*d[5mC]*dG*d[5mC]*e[5mC]*eT*eG*eA*eG) [compound 281609] — lower, 70%
- 281610 (antisense e[5mC]*eA*eG*e[5mC]*eT*d[5mC]*dT*dA*dA*dT*d[5mC]*dT*dG*dG*dT*eG*eT*e[5mC]*e[5mC]*e[5mC]) [compound 281610] — lower, 69%
- 281611 (antisense e[5mC]*eT*eG*eT*e[5mC]*d[5mC]*dT*d[5mC]*dT*d[5mC]*dT*d[5mC]*dT*dG*dG*eA*eG*e[5mC]*eT*e[5mC]) [compound 281611] — higher, 93%
- 281612 (antisense e[5mC]*eA*eA*eG*eG*dT*d[5mC]*dA*dT*dA*d[5mC]*dT*d[5mC]*dT*dG*e[5mC]*e[5mC]*eG*eA*eT) [compound 281612] — lower, 83%
- 281613 (antisense eG*eT*eA*eT*eG*dG*dA*dA*dA*dT*dA*dA*d[5mC]*dA*d[5mC]*e[5mC]*e[5mC]*eT*eT*eG) [compound 281613] — lower, 70%
- 281614 (antisense eT*eA*eA*eG*e[5mC]*dT*dG*dT*dA*dG*d[5mC]*dA*dG*dA*dT*eG*eA*eG*eT*e[5mC]) [compound 281614] — lower, 63%
- 281615 (antisense eT*eA*eG*eA*eT*d[5mC]*dT*d[5mC]*dT*dG*dG*dA*dG*dG*dA*eT*eT*eT*eG*e[5mC]) [compound 281615] — lower, 81%
- 281616 (antisense eG*eT*e[5mC]*eT*eA*dG*dA*dA*d[5mC]*dA*d[5mC]*d[5mC]*d[5mC]*dA*dG*eG*eA*eG*eA*eG) [compound 281616] — lower, 66%
- 281617 (antisense eA*e[5mC]*e[5mC]*eA*e[5mC]*dA*dG*dA*dG*dT*d[5mC]*dA*dG*d[5mC]*d[5mC]*eT*eT*e[5mC]*eA*eT) [compound 281617] — lower, 89%
- 281619 (antisense e[5mC]*eT*e[5mC]*eT*e[5mC]*d[5mC]*dA*dT*dT*dG*dA*dG*d[5mC]*d[5mC]*dG*eG*e[5mC]*e[5mC]*eA*eG) [compound 281619] — higher, 96%
- 281620 (antisense e[5mC]*e[5mC]*eT*eG*eA*dT*dA*dT*dT*d[5mC]*dA*dG*dA*dA*d[5mC]*eG*e[5mC]*eA*eG*e[5mC]) [compound 281620] — lower, 89%
- 281621 (antisense e[5mC]*eA*eG*eT*eG*d[5mC]*d[5mC]*dT*dA*dA*dG*dA*dT*dG*dT*e[5mC]*eA*eG*e[5mC]*eA) [compound 281621] — lower, 53%
- 281622 (antisense eA*eG*e[5mC]*eA*e[5mC]*d[5mC]*dA*dG*dG*dA*dG*dA*d[5mC]*dT*dA*e[5mC]*eA*e[5mC]*eT*eT) [compound 281622] — lower, 88%
- 281623 (antisense e[5mC]*e[5mC]*e[5mC]*eA*eT*d[5mC]*d[5mC]*dA*dG*dA*d[5mC]*dT*dG*dA*dA*eT*eT*eT*eT*eG) [compound 281623] — lower, 59%
- 281624 (antisense eG*eG*eT*eT*e[5mC]*dT*dA*dG*d[5mC]*d[5mC]*dG*dT*dA*dG*dT*eT*eT*e[5mC]*e[5mC]*e[5mC]) [compound 281624] — lower, 75%
- 281626 (antisense eA*eT*eG*eT*eG*d[5mC]*dA*dT*d[5mC]*dG*dA*dT*dG*dG*dT*e[5mC]*eA*eT*eG*eG) [compound 281626] — lower, 88%
- 281627 (antisense e[5mC]*e[5mC]*eA*eG*eA*dG*dA*dG*d[5mC]*dG*dA*dG*dT*dT*dT*e[5mC]*e[5mC]*e[5mC]*eA*eT) [compound 281627] — lower, 82%
- 281628 (antisense e[5mC]*eT*eA*eG*eA*d[5mC]*dA*d[5mC]*dG*dA*dG*dA*dT*dG*dA*eT*eG*eA*e[5mC]*eT) [compound 281628] — lower, 81%
- 281629 (antisense eT*e[5mC]*e[5mC]*eA*eA*dG*dT*d[5mC]*d[5mC]*dT*dG*dG*d[5mC]*dT*dG*eT*eA*eT*eT*e[5mC]) [compound 281629] — lower, 83%
- 281630 (antisense e[5mC]*eG*eT*e[5mC]*e[5mC]*dA*dG*dT*dA*dA*dG*d[5mC]*dT*d[5mC]*d[5mC]*eA*e[5mC]*eG*e[5mC]*e[5mC]) [compound 281630] — lower, 82%
- 281631 (antisense eT*e[5mC]*eA*eA*e[5mC]*dG*dG*d[5mC]*dA*dT*d[5mC]*dT*d[5mC]*dT*d[5mC]*eA*eT*e[5mC]*eT*e[5mC]) [compound 281631] — lower, 88%
- 281632 (antisense eT*eG*eA*eT*eA*dG*dT*dG*d[5mC]*dT*d[5mC]*dA*dT*d[5mC]*dA*eA*eG*eA*e[5mC]*eT) [compound 281632] — lower, 75%
- 281633 (antisense eG*eA*eT*eT*e[5mC]*dT*dG*dA*dT*dT*dT*dG*dG*dT*dA*e[5mC]*eT*eT*eA*eG) [compound 281633] — lower, 73%
